Literature values in patent US20090131395A1, “BIPHENYLAZETIDINONE CHOLESTEROL ABSORPTION INHIBITORS” (MICROBIA, INC., priority 2005, published 2009).

Biological target: T1, ileal Na+/bile acid cotransporter (Homo sapiens, UniProt Q12908)
T1 sequence (Q12908 1-348): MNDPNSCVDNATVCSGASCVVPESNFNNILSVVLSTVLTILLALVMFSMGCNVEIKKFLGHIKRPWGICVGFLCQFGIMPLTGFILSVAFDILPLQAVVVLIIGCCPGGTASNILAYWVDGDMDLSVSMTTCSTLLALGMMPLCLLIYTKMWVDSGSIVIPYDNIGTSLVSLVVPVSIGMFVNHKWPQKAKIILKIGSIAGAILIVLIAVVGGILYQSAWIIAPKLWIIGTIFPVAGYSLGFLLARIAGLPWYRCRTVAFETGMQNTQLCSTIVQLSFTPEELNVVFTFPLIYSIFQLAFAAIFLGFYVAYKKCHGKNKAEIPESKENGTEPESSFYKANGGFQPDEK
Details: in vivo

## O=C1[C@H](CC[C@H](O)c2ccc(F)cc2)[C@@H](c2ccc(O)cc2)N1c1ccc(F)cc1 [ezetimibe, (3R,4S)-1-(4-fluorophenyl)-3-[(3S)-3-(4-fluorophenyl)-3-hydroxypropyl]-4-(4-hydroxyphenyl)azetidin-2-one]
  inhibition of the absorption of taurocholic acid: does not inhibit the absorption of taurocholic acid
